One assay concerns RAW 264.7 cells. In words: Nitroso species accumulation in RAW 264.7 cells (triiodide chemiluminescence). It is filed as cell-based, rat. How it is done: Referring now to FIG. 3, briefly, RAW 264.7 cells were incubated with 500 μM GSNO alone (γ) or in presence of 33 μM Compound 6 (◯) or 7 (Δ) or 8 (▪). At indicated times or at 4 hr (in case of B), the cells were lysed and the lysate was analyzed for protein and nitroso species concentration by Bradford and chemiluminescence assay, respectively. For details, see Materials and methods. Data represents mean±SE (n=3−12).
RAW 264.7 cells were cultured in DMEM medium supplemented with 10% FBS, 200 U/ml of penicillin and 200 μg/mL of streptomycin. The cells were incubated at 37° C. in an atmosphere containing 5% CO2 and 95% air. For the experiments, 1-2×10^6 cells were plated in six-well plates a day before the experiment. On the day of the assay the medium was replaced with 3 ml of fresh medium and the cells were treated with compounds for a predetermined length of time. Following the incubation period, the cells were washed three times with PBS and scraped off the plate in 250 μl of lysis buffer (50 mM potassium phosphate pH 7.0 containing 50 mM NEM and 1 mM EDTA). Cells were lysed by sonication using a micro tip probe (three pulses of 30% duty cycle; 2 output control on a Fisher Sonicator). Cell debris was pelleted by centrifugation (10 min at 16,000 g) and the cell lysate was analyzed for protein concentration using the Bio-Rad dye-binding protein assay. The concentration of nitroso compounds in the cell lysate was determined using the triiodide based chemiluminescence method using a Sievers 280 nitric oxide analyzer. Briefly, cell lysates were treated with 15% v/v of a sulfanilamide solution (5% w/v in 0.2 M HCl) and kept at room temperature for 5 min to remove nitrite. The triodide mixture was prepared fresh every day as described earlier and kept at 60° C. in the reaction vessel. The concentration of nitroso species was derived from a standard curve generated using GSNO. For determining the amount of the small size nitroso compounds in the cell lysate, a 5 kDa-cutoff Amicon ultra filtration unit was used according to the supplier's instructions. The amount of s-nitrosothiols in the cell lysate was determined by treating initially passing the cell lysate through a microspin column and treating the eluate with 5 mM HgCl2 before determining the nitroso compound concentration using chemiluminescence. For some experiments the cells were pretreated with the compounds for 16 hours prior to the day of experiment.

In the next assay the test system is mouse aorta segments. Briefly: Wire myography, relaxation of aortic rings. Here is the method: Referring now to FIG. 5, mouse aorta segments were equilibrated in oxygenated PSS (95% O2 and 5% CO2) at 37° C. Following equilibration, 1 μM phenylephrine was added to each ring for submaximal contraction. After stabilization, increasing concentrations (10−9 M to 10−4 M) of either compound 8 or sodium nitroprusside (SNP) was added to the rings and the tone of the rings determined (B) Inhibition of compound 8 induced relaxation of aortal rings by nitric oxide synthase inhibitor, L-NAME. To pre-equilibrated and submaximally contracted aortal rings with phenylephrine (1 micromolar), LNAME (500 micromolar) was added to the bath and allowed to incubate for 30 minutes. […] Each experiment was performed using two rings from three different mice and the mean (±SEM) for each response determined.
Mice were anesthetized with diethyl ether. A thoracotomy was performed to expose thoracic and abdominal aorta. A 25 gauge syringe was inserted into the apex of left ventricle and perfused free of blood with oxygenated Krebs Henseleit buffer. The right atrium was cut to provide an exit for blood. The aorta was removed and cleaned of fat and adventitia. The aorta was cut into 2-mm-long segments and mounted on a four-channel wire myograph (AD Instruments). Vessel rings were maintained in 10-ml organ baths with oxygenated PSS (95% O2 and 5% CO2) at 37° C. Rings were allowed to equilibrate for 80 minutes with the buffer in each organ bath changed every 20 min. One gram pretension was placed on each aortic ring (appropriate starting tension for optimal vasomotor function as determined in previous experiments). An eight-channel octal bridge (Powerlab) and data-acquisition software (Chart version 5.2.2) were used to record all force measurements. After equilibration for 80 min, 1 μM 27 phenylephrine was added to each ring for submaximal contraction. After stabilization, either compound 8 or sodium nitroprusside (SNP) was added to the rings and the tone of the rings determined. For the determination of SNP and ACh dose-response relationships, aortic rings were precontracted with 10−6 M PE, and SNP or compound 8 was then added in increasing concentrations from 10−9 M to 10−4 M. In a subset of experiments, L-NAME was added (500 μM final) to the bath and allowed to incubate for 30 minutes. After 30 minutes, compound 8 was added and the tone of the rings determined as described above.

Setting [1] is: direct comparison with sodium nitroprusside.

The structures appear in SMILES notation.

The EC50 is the concentration at which the effect is half-maximal.

With `N#Cc1ccccc1CSc1nc2ccsc2c(=O)n1Cc1ccc(C(=O)O)cc1` [Compound 8], the “nitrosylation, fold higher than Compound 7” value in the assay on RAW 264.7 cells (33 μM initial concentration, 500 μM GSNO, 4 hr) turned out to be 3 fold. Moreover, the “decrease in nitrosylated species relative to amounts at 4 hours” value in the assay on RAW 264.7 cells (exposure up to 24 hours, data not shown) came out at 80%. In addition, the “time to begin relaxation” value in the assay with mouse aorta segments is recorded as “around 3 minutes”. In the assay with mouse aorta segments (50 μM), the “duration of sustained vessel relaxation” value was “up to 2 hours”, the “relaxation of the vessels” value is “completely relaxed” and the “time to complete relaxation” value is on record as not above 15 min. For the same molecule, in the assay with mouse aorta segments (500 μM L-NAME for 30 minutes, then 50 μM compound 8), the “inhibition of vasorelaxation by L-NAME preincubation” value is listed as “roughly 58%”. Further, in the assay on mouse aorta segments (setting [1]), the “duration of the effect compared with SNP” value is “much longer than with SNP” and the “potency at relaxing vascular smooth muscle compared with SNP” value was “less potent than SNP”. The EC50 with mouse aorta segments (rings precontracted with 1 μM phenylephrine, read-out: EC50 of vessel relaxation) came to 5 µM.

For the origin of these results see patent US9198909B1, “Materials and methods for inhibiting mamalian S-nitrosoglutathione reductase” (Indiana University Research and Technology Corporation, priority 2007, dated 2015).
